Measurements taken from patent publication US20180185510A1, “ANTIBODY DRUG CONJUGATES OF KINESIN SPINDEL PROTEIN (KSP) INHIBITORS WITH ANTI-B7H3-ANTIBODIES” (BAYER PHARMA AKTIENGESELLSCHAFT, priority 2015, published 2018).

Experiments:
KPL4 = assay: MTT assay, cytotoxicity of metabolites, KPL4; assay type: cell-based; conditions: KPL4; 96 h incubation
Description: (§1) The cells were cultivated according to the standard method using the growth media listed under C-1. The test is carried out by detaching the cells with a solution of Accutase in PBS (Biochrom AG #L2143), pelleting, resuspending in culture medium, counting and sowing into a 96-well culture plate with white bottom (Costar #3610) (NCI H292: 2500 cells/well in a total volume of 100 μl). The cells were then incubated in an incubator at 37° C. and 5% carbon dioxide. After 48 h, the medium was replaced. The metabolites in 10 μl of culture medium in concentrations from 10^−5M to 10^−13M were then pipetted to the cells (in triplicate), and the assay was then incubated in an incubator at 37° C. and 5% carbon dioxide. […] To this end, the MTT reagent was incubated with the cells for 4 h, followed by lysis of the cells overnight by addition of the detergent. The dye formed was detected at 570 nm (Infinite M1000 pro, Tecan). The measured data were used to calculate the IC50 of the growth inhibition using the DRC (dose response curve). The proliferation of cells which were not treated with test substance but were otherwise identically treated was defined as the 100% figure.

[1] = test system: NCI-H292: human mucoepidermoid lung carcinoma cells; assay: MTT assay, cytotoxicity of metabolites, NCI-H292; assay type: cell-based; conditions: NCI-H292, 96 h incubation
Description: NCI-H292: human mucoepidermoid lung carcinoma cells, ATCC-CRL-1848, standard medium: RPMI 1640 (Biochrom; #FG1215, stab. glutamine)+10% FCS (Biochrom; #S0415).
as §1

Caco-2 cells = assay: Flux assay for cell permeability using Caco-2 cells; conditions: Caco-2, basal to apical, 2 hours
[2] = test system: MCF-7: human breast cancer cells; assay: CTG assay, cytotoxic effects of the anti-B7H3 ADCs, MCF-7; assay type: cell-based; conditions: MCF7, growth inhibition vs day 0, 72 h incubation, B7H3-positive cells
Description: (§2) The analysis of the cytotoxic effects of the anti-B7H3 ADCs was carried out with various cell lines:
(§3) The cells were cultivated by the standard method as stated by the American Tissue Culture Collection (ATCC) for the cell lines in question.
(§4) The cells were cultivated according to the standard method using the growth media listed under C-1. […] The cells were then incubated in an incubator at 37° C. and 5% carbon dioxide. In a parallel plate, the cell vitality was determined at the start of the drug treatment (day 0) using the Cell Titer Glow (CTG) Luminescent Cell Viability Assay (Promega #G7573 and #G7571). To this end, 100 μl of the substrate were added per cell batch, the plates were then covered with aluminium foil, shaken on the plate shaker at 180 rpm for 2 minutes, allowed to stand on the laboratory bench for 8 minutes and then measured using a luminometer (Victor X2, Perkin Elmer). The substrate detects the ATP content in the living cells, generating a luminescence signal the height of which is directly proportional to the vitality of the cells. […] From the measured data, the IC50 of the growth inhibition in comparison to day 0 was calculated using the DRC (dose response curve) analysis spreadsheets with a 4-parameter fit. […]

[3] = test system: Raji: human Burkitt's lymphoma cells; assay: CTG assay, cytotoxic effects of the anti-B7H3 ADCs, Raji; assay type: cell-based; conditions: growth inhibition vs day 0, 72 h incubation, B7H3-negative cells
Description: as §2, §3, §4

[4] = test system: Caki-2: human renal carcinoma cells; assay: CTG assay, cytotoxic effects of the anti-B7H3 ADCs, Caki-2; assay type: cell-based; conditions: growth inhibition vs day 0, 72 h incubation, B7H3-positive cells
Description: Caki-2: human renal carcinoma cells, ATCC-HTB-27, standard medium: DMEM/Ham's F12 (#FG4815, Biochrom AG)+10% FCS (#F2442, Sigma), B7H3-positive.

[5] = test system: A498: human renal carcinoma cells; assay: CTG assay, cytotoxic effects of the anti-B7H3 ADCs, A498; assay type: cell-based; conditions: growth inhibition vs day 0, 72 h incubation, B7H3-positive cells
Description: as §2, §3, §4

SMILES | IC50 (KPL4) [nM] | IC50 [1] [nM] | Papp (B-A) (Caco-2 cells) [×10⁻⁶ cm/s] | IC50 [2] [nM] | IC50 [3] [nM] | IC50 [4] [nM] | IC50 [5] [nM]
CC(C)(C)[C@H](c1cc(-c2cc(F)ccc2F)cn1Cc1ccccc1)N(CC[C@H](N)C(=O)NC(CCC(=O)O)C(=O)O)C(=O)CO.O=C(O)C(F)(F)F (stereo in doubt) [Example M25, N-{(2S)-2-Amino-4-[{(1R)-1-[1-benzyl-4-(2,5-difluorophenyl)-1H-pyrrol-2-yl]-2,2-dimethylpropyl}(glycoloyl)amino]butanoyl}-L-glutamic acid-trifluoroacetic acid (1:1)] | 500 | 500 | 0.81 |  |  |  | 
CC(C)(C)[C@H](c1cc(-c2cc(F)ccc2F)cn1Cc1ccccc1)N(CCCN)C(=O)CO [Example M09, N-(3-Aminopropyl)-N-{(1R)-1-[1-benzyl-4-(2,5-difluorophenyl)-1H-pyrrol-2-yl]-2,2-dimethylpropyl}-2-hydroxyacetamide] |  |  |  | 0.015 | 0.015 | 0.0975 | 0.0165
